{"source": "PubChem BioAssay AID1845216", "about": "(Molecular Pharmacology Branch, DTP, NCI, 2023)", "test_system": "SW 982 tumor spheroid viability", "assay": "Anticancer human tumor SW 982 cell line growth inhibition;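 for all read-outs here: spheroids exposed to compound for 7 days before readout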", "settings": "spheroids with HUVEC and MSC; for IC50: curve of first compound; for viability, T/C: stronger effect = lower value", "how_it_was_run": "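Single agents and combinations were tested on spheroids built from tumor cells plus HUVEC and hMSC, at half-log dilutions starting at or near clinical Cmax, else 10 microM; final DMSO 0.25% (v/v).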", "data": [{"smiles": "CC(C)n1c(=O)n(C)c2cnc3cc(F)c(-c4ccc(OCCCN5CCCCC5)nc4)cc3c21", "note": "+ COc1cc2c(cc1O)CCNC21CSC2c3c(OC(C)=O)c(C)c4c(c3C(COC1=O)N1C(O)C3Cc5cc(C)c(OC)c(O)c5C(C21)N3C)OCO4", "values": [{"measurement": "IC50", "setting": "second compound 30 pM", "result": 2850, "unit": "nM"}, {"measurement": "IC50", "setting": "second compound 94.9 pM", "result": 5660, "unit": "nM"}, {"measurement": "IC50", "setting": "second compound 0.0003 µM", "result": 2450, "unit": "nM"}, {"measurement": "IC50", "setting": "second compound 0.000949 µM", "result": "< 31.6", "unit": "nM"}, {"measurement": "IC50", "setting": "second compound 0.003 µM", "result": "< 31.6", "unit": "nM"}, {"measurement": "viability, T/C", "setting": "second compound 30 pM, first compound 0.0316 µM", "result": 83.8, "unit": "%"}, {"measurement": "viability, T/C", "setting": "second compound 30 pM, first compound 0.1 µM", "result": 87.3, "unit": "%"}, {"measurement": "viability, T/C", "setting": "second compound 30 pM, first compound 0.316 µM", "result": 83.9, "unit": "%"}, {"measurement": "viability, T/C", "setting": "second compound 30 pM, first compound 1 µM", "result": 76.5, "unit": "%"}, {"measurement": "viability, T/C", "setting": "second compound 30 pM, first compound 3.16 µM", "result": 47.3, "unit": "%"}, {"measurement": "viability, T/C", "setting": "second compound 30 pM, first compound 10 µM", "result": 42.7, "unit": "%"}, {"measurement": "viability, T/C", "setting": "second compound 94.9 pM, first compound 0.0316 µM", "result": 80.6, "unit": "%"}, {"measurement": "viability, T/C", "setting": "second compound 94.9 pM, first compound 0.1 µM", "result": 80.5, "unit": "%"}, {"measurement": "viability, T/C", "setting": "second compound 94.9 pM, first compound 0.316 µM", "result": 79.1, "unit": "%"}, {"measurement": "viability, T/C", "setting": "second compound 94.9 pM, first compound 1 µM", "result": 75.1, "unit": "%"}, {"measurement": "viability, T/C", "setting": "second compound 94.9 pM, first compound 3.16 µM", "result": 59.8, "unit": "%"}, {"measurement": "viability, T/C", "setting": "second compound 94.9 pM, first compound 10 µM", "result": 40.4, "unit": "%"}, {"measurement": "viability, T/C", "setting": "second compound 0.0003 µM, first compound 0.0316 µM", "result": 69.2, "unit": "%"}, {"measurement": "viability, T/C", "setting": "second compound 0.0003 µM, first compound 0.1 µM", "result": 65.5, "unit": "%"}, {"measurement": "viability, T/C", "setting": "second compound 0.0003 µM, first compound 0.316 µM", "result": 72.4, "unit": "%"}, {"measurement": "viability, T/C", "setting": "second compound 0.0003 µM, first compound 1 µM", "result": 64.5, "unit": "%"}, {"measurement": "viability, T/C", "setting": "second compound 0.0003 µM, first compound 3.16 µM", "result": 45.9, "unit": "%"}, {"measurement": "viability, T/C", "setting": "second compound 0.0003 µM, first compound 10 µM", "result": 37, "unit": "%"}, {"measurement": "viability, T/C", "setting": "second compound 0.000949 µM, first compound 0.0316 µM", "result": 32.3, "unit": "%"}, {"measurement": "viability, T/C", "setting": "second compound 0.000949 µM, first compound 0.1 µM", "result": 30.3, "unit": "%"}, {"measurement": "viability, T/C", "setting": "second compound 0.000949 µM, first compound 0.316 µM", "result": 30.6, "unit": "%"}, {"measurement": "viability, T/C", "setting": "second compound 0.000949 µM, first compound 1 µM", "result": 43.6, "unit": "%"}, {"measurement": "viability, T/C", "setting": "second compound 0.000949 µM, first compound 3.16 µM", "result": 33.8, "unit": "%"}, {"measurement": "viability, T/C", "setting": "second compound 0.000949 µM, first compound 10 µM", "result": 21.6, "unit": "%"}, {"measurement": "viability, T/C", "setting": "second compound 0.003 µM, first compound 0.0316 µM", "result": 0.57, "unit": "%"}, {"measurement": "viability, T/C", "setting": "second compound 0.003 µM, first compound 0.1 µM", "result": 0.53, "unit": "%"}, {"measurement": "viability, T/C", "setting": "second compound 0.003 µM, first compound 0.316 µM", "result": 0.47, "unit": "%"}, {"measurement": "viability, T/C", "setting": "second compound 0.003 µM, first compound 1 µM", "result": 0.5, "unit": "%"}, {"measurement": "viability, T/C", "setting": "second compound 0.003 µM, first compound 3.16 µM", "result": 0.57, "unit": "%"}, {"measurement": "viability, T/C", "setting": "second compound 0.003 µM, first compound 10 µM", "result": 0.64, "unit": "%"}]}, {"smiles": "Cn1ncnc1[C@H]1c2n[nH]c(=O)c3cc(F)cc(c23)N[C@@H]1c1ccc(F)cc1", "note": "+ Cn1nnc2c(C(N)=O)ncn2c1=O", "values": [{"measurement": "IC50", "setting": "second compound 1 µM", "result": "> 3000", "unit": "nM"}, {"measurement": "IC50", "setting": "second compound 3.16 µM", "result": "> 3000", "unit": "nM"}, {"measurement": "IC50", "setting": "second compound 10 µM", "result": "> 3000", "unit": "nM"}, {"measurement": "IC50", "setting": "second compound 31.6 µM", "result": 1080, "unit": "nM"}, {"measurement": "IC50", "setting": "second compound 100 µM", "result": "< 9.49", "unit": "nM"}, {"measurement": "viability, T/C", "setting": "second compound 1 µM, first compound 0.00949 µM", "result": 90.9, "unit": "%"}, {"measurement": "viability, T/C", "setting": "second compound 1 µM, first compound 0.03 µM", "result": 88.5, "unit": "%"}, {"measurement": "viability, T/C", "setting": "second compound 1 µM, first compound 0.0949 µM", "result": 86.6, "unit": "%"}, {"measurement": "viability, T/C", "setting": "second compound 1 µM, first compound 0.3 µM", "result": 89.2, "unit": "%"}, {"measurement": "viability, T/C", "setting": "second compound 1 µM, first compound 0.949 µM", "result": 79, "unit": "%"}, {"measurement": "viability, T/C", "setting": "second compound 1 µM, first compound 3 µM", "result": 69.9, "unit": "%"}, {"measurement": "viability, T/C", "setting": "second compound 3.16 µM, first compound 0.00949 µM", "result": 89.8, "unit": "%"}, {"measurement": "viability, T/C", "setting": "second compound 3.16 µM, first compound 0.03 µM", "result": 62.1, "unit": "%"}, {"measurement": "viability, T/C", "setting": "second compound 3.16 µM, first compound 0.0949 µM", "result": 79.3, "unit": "%"}, {"measurement": "viability, T/C", "setting": "second compound 3.16 µM, first compound 0.3 µM", "result": 73, "unit": "%"}, {"measurement": "viability, T/C", "setting": "second compound 3.16 µM, first compound 0.949 µM", "result": 77.3, "unit": "%"}, {"measurement": "viability, T/C", "setting": "second compound 3.16 µM, first compound 3 µM", "result": 59.9, "unit": "%"}, {"measurement": "viability, T/C", "setting": "second compound 10 µM, first compound 0.00949 µM", "result": 70.4, "unit": "%"}, {"measurement": "viability, T/C", "setting": "second compound 10 µM, first compound 0.03 µM", "result": 69.5, "unit": "%"}, {"measurement": "viability, T/C", "setting": "second compound 10 µM, first compound 0.0949 µM", "result": 60, "unit": "%"}, {"measurement": "viability, T/C", "setting": "second compound 10 µM, first compound 0.3 µM", "result": 64.3, "unit": "%"}, {"measurement": "viability, T/C", "setting": "second compound 10 µM, first compound 0.949 µM", "result": 60, "unit": "%"}, {"measurement": "viability, T/C", "setting": "second compound 10 µM, first compound 3 µM", "result": 50.3, "unit": "%"}, {"measurement": "viability, T/C", "setting": "second compound 31.6 µM, first compound 0.00949 µM", "result": 56, "unit": "%"}, {"measurement": "viability, T/C", "setting": "second compound 31.6 µM, first compound 0.03 µM", "result": 55.7, "unit": "%"}, {"measurement": "viability, T/C", "setting": "second compound 31.6 µM, first compound 0.0949 µM", "result": 53, "unit": "%"}, {"measurement": "viability, T/C", "setting": "second compound 31.6 µM, first compound 0.3 µM", "result": 55.5, "unit": "%"}, {"measurement": "viability, T/C", "setting": "second compound 31.6 µM, first compound 0.949 µM", "result": 50.1, "unit": "%"}, {"measurement": "viability, T/C", "setting": "second compound 31.6 µM, first compound 3 µM", "result": 43.9, "unit": "%"}, {"measurement": "viability, T/C", "setting": "second compound 100 µM, first compound 0.00949 µM", "result": 44.5, "unit": "%"}, {"measurement": "viability, T/C", "setting": "second compound 100 µM, first compound 0.03 µM", "result": 44.9, "unit": "%"}, {"measurement": "viability, T/C", "setting": "second compound 100 µM, first compound 0.0949 µM", "result": 48.1, "unit": "%"}, {"measurement": "viability, T/C", "setting": "second compound 100 µM, first compound 0.3 µM", "result": 44, "unit": "%"}, {"measurement": "viability, T/C", "setting": "second compound 100 µM, first compound 0.949 µM", "result": 39.8, "unit": "%"}, {"measurement": "viability, T/C", "setting": "second compound 100 µM, first compound 3 µM", "result": 39.7, "unit": "%"}]}]}
